Data on two molecules can be found in the NIST ThermoML archive (doi:10.1016/j.jct.2011.05.036).

This data set in a line: mn = molality of the nth substance listed, in mol/kg. To be noted: 298.15 K, 101 kPa, Liquid, Vibrating tube method.

± gives the expanded uncertainty stated by the source.

By mass density is commonly meant the mass of a sample divided by its volume. As to `O=S(=O)(O)CCCN1CCOCC1` [4-morpholinepropanesulfonic acid] + O, the mass density (m1 = 0.0212) amounted to 998.4 ± 0.13 kg/m3; the mass density (m1 = 0.0584) came out at 1000.76 ± 0.13 kg/m3; the mass density (m1 = 0.1012) came to 1003.44 ± 0.13 kg/m3; the mass density (m1 = 0.2396) was determined as 1011.89 ± 0.13 kg/m3; the mass density (m1 = 0.6942) was 1037.46 ± 0.13 kg/m3; the mass density (m1 = 1.248) amounted to 1064.7 ± 0.13 kg/m3. In addition, the mass density stood at 1106.41 ± 0.14 kg/m3 (m1 = 2.273); 1138.03 ± 0.15 kg/m3 (m1 = 3.243); 1168.14 ± 0.16 kg/m3 (m1 = 4.387); 1195.72 ± 0.17 kg/m3 (m1 = 5.781); 1217.61 ± 0.18 kg/m3 (m1 = 7.087).
As for `O=S(=O)(O)CC(O)CN1CCOCC1` (stereo not given) [3-morpholino-2-hydroxypropanesulfonic acid] + O, the mass density is on record as 1006.93 ± 0.14 kg/m3 (m1 = 0.1262); 1017.35 ± 0.14 kg/m3 (m1 = 0.2647); 1044.51 ± 0.14 kg/m3 (m1 = 0.6529); 1067.2 ± 0.14 kg/m3 (m1 = 1.012); 1093.32 ± 0.15 kg/m3 (m1 = 1.477); 1120.89 ± 0.16 kg/m3 (m1 = 2.03). In addition, the mass density (m1 = 2.537) was 1142.98 ± 0.17 kg/m3, the mass density (m1 = 3.196) is 1168.39 ± 0.19 kg/m3 and the mass density (m1 = 3.75) is reported as 1187 ± 0.2 kg/m3.
